The source of these data is patent US9487489B2, “Halogen-substituted pyrazole derivatives as pest-control agents” (BAYER CROPSCIENCE AKTIENGESELLSCHAFT, priority 2013, dated 2016).

Data set [1] has as its system adult cat fleas (Ctenocephalides felis). In words: Ctenocephalides felis oral test (CTECFE). Conditions: application rate 100 ppm in citrated cattle blood; after 2 days. It counts as in vivo. The procedure, abridged:
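About 20 unfed adult cat fleas fed through parafilm membrane on citrated cattle blood containing compound (DMSO stock diluted in blood to test concentration). Kill % scored after 2 days (100% = all fleas dead).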

For data set [2], the system named is larvae of the mustard beetle (Phaedon cochleariae). In words: Phaedon cochleariae spray test (PHAECO). The format is in vivo. Conditions: Chinese cabbage leaf discs, after 7 days. The procedure, abridged:
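Compound dissolved in acetone/dimethylformamide with alkylaryl polyglycol ether emulsifier, made up in water containing 1000 ppm emulsifier, then diluted to test concentrations and sprayed against mustard beetle larvae. Efficacy (% larvae killed) scored after 7 days.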

Data set [3] concerns L1 larvae of the Australian sheep blowfly (Lucilia cuprina). In words: Lucilia cuprina test (LUCICU). The format is in vivo. Particulars: application rate 100 ppm; after 2 days. The essentials:
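About 20 L1 larvae placed in a vessel with minced horsemeat plus compound (DMSO concentrate diluted with water to the desired concentration). Kill in % scored after 2 days, 100% meaning all larvae dead.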

For data set [4], the system named is caterpillars of the armyworm (Spodoptera frugiperda). Briefly: Spodoptera frugiperda spray test (SPODFR). It counts as in vivo. Particulars: maize leaf discs, after 7 days. The procedure, abridged: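 Maize leaf discs sprayed with compound in acetone/DMF with alkylaryl polyglycol ether emulsifier (1000 ppm) in water, dried, then infested with armyworm caterpillars. Mortality (%) scored after 7 days; 100% = all caterpillars killed, 0% = none killed.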

In data set [5] the test system is greenhouse red spider mite (Tetranychus urticae). In words: Tetranychus urticae spray test, OP-resistant (TETRUR). It counts as in vivo. Particulars: bean leaf discs, after 6 days. The procedure, abridged:
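Bean leaf discs carrying all stages of OP-resistant Tetranychus urticae were sprayed with compound formulated in acetone/dimethylformamide and diluted in water with 1000 ppm alkylaryl polyglycol ether emulsifier. Mortality (% efficacy, 100% = all mites killed) scored after 6 days.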

Data set [6] can be described thus: logP determination by HPLC on a reversed-phase column (C18), EEC Directive 79/831 Annex V.A8. Conditions: HPLC on reversed-phase column (C18), acetonitrile/water with formic acid, EEC Directive 79/831 Annex V.A8. The format is physicochemical. The essentials:
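Retention on a C18 reversed-phase column (Zorbax Eclipse Plus, 1.8 micron) was used, eluting with acetonitrile/water, each containing formic acid. The gradient ran from 10% to 95% acetonitrile over 4.25 min, then held 1.25 min, at 55° C and 2.0 ml/min, with MS detection.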

Data set [7] concerns adult houseflies (Musca domestica). Briefly: Musca domestica test (MUSCDO). It counts as in vivo. Particulars: application rate 100 ppm; after 2 days. The procedure, abridged: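 Compound dissolved in DMSO and diluted with water to the test concentration, applied with sugar solution on a sponge; 10 adult houseflies per vessel. Mortality scored after 2 days as % kill (100% all dead, 0% none).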

In data set [8] the test system is cattle ticks (Boophilus microplus) Parkhurst strain, SP-resistant. Briefly: Boophilus microplus dip test (BOOPMI Dip). It counts as in vivo. Conditions: application rate 100 ppm, assessed after 7 days. On the procedure: B. Boophilus microplus-dip Test (BOOPMI Dip)
Test animals: cattle ticks (Boophilus microplus) Parkhurst strain, SP-resistant
Solvent: dimethyl sulphoxide
10 mg of active compound are dissolved in 0.5 ml of dimethyl sulphoxide. For the purpose of preparing a suitable formulation, the active compound solution is diluted with water to the concentration desired in each case.
This active compound preparation is pipetted into tubes. 8-10 adult engorged female cattle ticks (Boophilus microplus) are transferred into a further tube with holes. The tube is immersed into the active compound formulation, and all ticks are completely wetted. After the liquid has run out, the ticks are transferred on filter discs into plastic dishes and stored in a climate-controlled room.
The activity is assessed after 7 days by laying of fertile eggs. Eggs whose fertility is not visible from the outside are stored in a climate-controlled cabinet until the larvae hatch after about 42 days. An efficacy of 100% means that none of the ticks has laid any fertile eggs; 0% means that all eggs are fertile.

The test system of data set [9] is engorged adult female cattle ticks (Boophilus microplus). Briefly: Boophilus microplus injection test (BOOPMI Inj). Conditions: application rate 20 μg/animal; injection into abdomen; assessed after 7 days. The format is in vivo. The procedure, abridged: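 DMSO solution of compound (1 μl) injected into the abdomen of 5 engorged adult female ticks, which are then held in a climate-controlled room. After 7 days, efficacy is scored from laying of fertile eggs, with unclear eggs kept until larval hatch (~42 days); 100% means no fertile eggs, 0% all fertile.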

Data set [10] deals with green peach aphid (Myzus persicae). Briefly: Myzus persicae spray test (MYZUPE). It counts as in vivo. Particulars: Chinese cabbage leaf discs, after 6 days. The procedure, abridged: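 Chinese cabbage leaf discs infested with all aphid stages sprayed with compound in acetone/DMF with alkylaryl polyglycol ether emulsifier in water. Efficacy (% aphids killed; 100% all dead, 0% none) scored after 6 days.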

The test system of data set [11] is adult cat fleas (Ctenocephalides felis). Briefly: Ctenocephalides felis in vitro contact test with adult cat fleas (T1). Particulars: after 48 h. The procedure, abridged: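 Test compound was dissolved in acetone p.a. (9 mg per 1 ml) and diluted as needed. 250 μl was spread evenly over the inner walls and floor of a 25 ml test tube by rotating on an orbital shaker for 2 h at 30 rpm. Once the solvent evaporated, 5-10 adult Ctenocephalides felis were added. Tubes were capped with a perforated plastic lid and kept horizontal at room temperature and ambient humidity.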

The test system of data set [12] is adult dog ticks (Rhipicephalus sanguineus). In words: Rhipicephalus sanguineus in vitro contact test with adult brown dog ticks (T2). Conditions: after 48 h. The essentials:
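Acetone solutions coated onto test tube walls and floor, giving 5 μg/cm^2 at 900 ppm. Five to ten adult ticks held per tube in the dark at room temperature for 48 h, then heated at 45-50° C for up to 5 min; efficacy is the percentage of dead or moribund ticks unable to climb away.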

For the molecule `Cn1nc(C(F)(F)C(F)(F)F)c(C(F)(F)F)c1-n1cc(-c2ccc([N+](=O)[O-])c(C(=O)NC3(C#N)CC3)c2)cn1` [Ic-65], the “efficacy (kill in %)” value in data set [1], in data set [3] and in [7] was 100% each time. Besides, the efficacy in % in data set [2] (application rate 100 g/ha) turned out to be 100%; in data set [4] (application rate 100 g/ha), 83%; in data set [5] (application rate 100 g/ha) it was 100%; in data set [10] (application rate 100 g/ha), 90%. The same molecule came in with a lipophilicity (logP) in data set [6] of 3.48. Besides, the “efficacy (laying of fertile eggs)” value in data set [8] and in [9] was 100% in each case. The “efficacy (dead or moribund fleas)” value in data set [11] (application rate 1 μg/cm^2) and in data set [11] (application rate 5 μg/cm^2) was 100% each time.

As to `Cn1nc(C(F)(F)C(F)(F)F)c(C(F)(F)F)c1-n1cc(-c2ccc(Cl)c(C(=O)NCC(C)(F)F)c2)cn1` [Ic-80], the “efficacy (kill in %)” value in data set [1], in [3] and in data set [7] was 100% throughout. The efficacy in % came to 100% in data set [2] (application rate 100 g/ha), 100% in data set [4] (application rate 100 g/ha), 100% in data set [5] (application rate 100 g/ha) and 90% in data set [10] (application rate 100 g/ha). The molecule further had a logP in data set [6] of 4.05. In addition, the results for the “efficacy (laying of fertile eggs)” value in data set [8] and in data set [9] were 80% and 100%, respectively.

With `Cn1nc(C(F)(F)F)c(CF)c1-n1cc(-c2ccc(Cl)c(C(=O)NC3CC3)c2)cn1` [Ic-103], the “efficacy (kill in %)” value was determined as 100% in data set [1], 100% in data set [3] and 80% in [7]. Further, the efficacy in % in data set [2] (application rate 100 g/ha), in data set [4] (application rate 100 g/ha) and in data set [5] (application rate 100 g/ha) was 100% in each case. In [6], this molecule returned a log partition coefficient (logP) of 2.89. Moreover, the “efficacy (dead or moribund ticks)” value in data set [12] (application rate 1 μg/cm^2) and in data set [12] (application rate 5 μg/cm^2) was 100% in each case. For the same molecule, the “efficacy (laying of fertile eggs)” value in [8] is recorded as 90%; in [9] it was 100%.

Consider `CC(C)NC(=O)c1cc(-c2cnn(-c3c(C(F)(F)F)c(C(F)(F)C(F)(F)F)nn3C)c2)ccc1Cl` [Ic-113], for which the efficacy in % stood at 100% in data set [2] (application rate 100 g/ha), 100% in data set [4] (application rate 100 g/ha), 100% in data set [5] (application rate 100 g/ha) and 90% in [10] (application rate 100 g/ha). In addition, in data set [6], the logP was 4.01. In addition, the “efficacy (dead or moribund ticks)” value is listed as 80% in data set [12] (application rate 1 μg/cm^2) and 100% in data set [12] (application rate 5 μg/cm^2). In data set [8], the “efficacy (laying of fertile eggs)” value turned out to be 100%. Further, the “efficacy (dead or moribund fleas)” value in data set [11] (application rate 1 μg/cm^2) and in data set [11] (application rate 5 μg/cm^2) was 100% each time.

For the molecule `Cn1ccc(NC(=O)c2cc(-c3cnn(-c4c(C(F)(F)F)c(C(F)(F)C(F)(F)F)nn4C)c3)ccc2Cl)n1` [Ic-159], the “efficacy (kill in %)” value in [1], in data set [3] and in data set [7] was 100% throughout. The efficacy in % in data set [2] (application rate 500 g/ha), in [4] (application rate 500 g/ha), in [5] (application rate 500 g/ha) and in data set [10] (application rate 500 g/ha) was 100% throughout. In addition, the “efficacy (laying of fertile eggs)” value in [8] turned out to be 80%; in data set [9], 100%. Moreover, the “efficacy (dead or moribund fleas)” value in data set [11] (application rate 1 μg/cm^2) and in [11] (application rate 5 μg/cm^2) was 100% throughout.

Turning to `COCCNC(=O)c1cc(-c2cnn(-c3c(C(F)(F)F)c(C(F)(F)C(F)(F)F)nn3C)c2)ccc1Cl` [Ic-139], the “efficacy (kill in %)” value in [1] was 100%. In addition, the efficacy in % in data set [2] (application rate 500 g/ha), in data set [4] (application rate 500 g/ha), in data set [5] (application rate 500 g/ha) and in data set [10] (application rate 500 g/ha) was 100% each time. Further, the “efficacy (laying of fertile eggs)” value in [8] and in data set [9] was 100% each time. The “efficacy (dead or moribund fleas)” value in data set [11] (application rate 1 μg/cm^2) and in data set [11] (application rate 5 μg/cm^2) was 100% throughout.

As for `CNC(=O)C1(N(C)C(=O)c2cc(-c3cnn(-c4c(C(F)(F)F)c(C(F)(F)C(F)(F)F)nn4C)c3)ccc2Cl)CC1` [Ic-97], the “efficacy (kill in %)” value in data set [1], in data set [3] and in data set [7] was 100% each time. In addition, the efficacy in % in data set [2] (application rate 500 g/ha), in data set [4] (application rate 500 g/ha), in data set [5] (application rate 500 g/ha) and in data set [10] (application rate 500 g/ha) was 100% each time. The lipophilicity (logP) in [6] was determined as 3.58. Further, the results for the “efficacy (laying of fertile eggs)” value in [8] and in data set [9] were 90% and 100%, respectively. The “efficacy (dead or moribund fleas)” value in [11] (application rate 1 μg/cm^2) and in [11] (application rate 5 μg/cm^2) was 100% in each case.

On to `C=C=CCNC(=O)c1cc(-c2cnn(-c3c(C(F)(F)F)c(C(F)(F)C(F)(F)F)nn3C)c2)ccc1Cl` [Ic-111], for which the efficacy in % in [2] (application rate 100 g/ha), in data set [4] (application rate 100 g/ha), in data set [5] (application rate 100 g/ha) and in data set [10] (application rate 100 g/ha) was 100% in each case. In data set [6], this molecule came in with a logP of 4.04. Besides, the “efficacy (dead or moribund ticks)” value in data set [12] (application rate 1 μg/cm^2) and in [12] (application rate 5 μg/cm^2) was 100% in each case. Also, the “efficacy (laying of fertile eggs)” value in data set [8] is listed as 100%. Also, the “efficacy (dead or moribund fleas)” value in [11] (application rate 1 μg/cm^2) and in data set [11] (application rate 5 μg/cm^2) was 100% throughout.

Turning to `Cn1nc(C(F)(F)C(F)(F)F)c(C(F)(F)F)c1-n1cc(-c2ccc(Cl)c(C(=O)NCC=CCl)c2)cn1` [Ic-112], the efficacy in % in [4] (application rate 100 g/ha), in data set [5] (application rate 100 g/ha) and in [10] (application rate 100 g/ha) was 100% in each case. The logP in data set [6] is listed as 4.13. For the same molecule, the “efficacy (dead or moribund ticks)” value in data set [12] (application rate 1 μg/cm^2) and in [12] (application rate 5 μg/cm^2) was 100% in each case. Also, in data set [8], the “efficacy (laying of fertile eggs)” value worked out at 100%. Moreover, the “efficacy (dead or moribund fleas)” value in data set [11] (application rate 1 μg/cm^2) and in data set [11] (application rate 5 μg/cm^2) was 100% each time.

As for `C#CCNC(=O)c1cc(-c2cnn(-c3c(C(F)(F)F)c(C(F)(F)C(F)(F)F)nn3C)c2)ccc1Cl` [Ic-109], the efficacy in % in data set [2] (application rate 100 g/ha), in data set [4] (application rate 100 g/ha), in data set [5] (application rate 100 g/ha) and in data set [10] (application rate 100 g/ha) was 100% throughout. This molecule gave a logP in data set [6] of 3.69. Also, the “efficacy (dead or moribund ticks)” value in data set [12] (application rate 1 μg/cm^2) and in data set [12] (application rate 5 μg/cm^2) was 100% each time. In data set [8], the “efficacy (laying of fertile eggs)” value is 100%. The “efficacy (dead or moribund fleas)” value in data set [11] (application rate 1 μg/cm^2) and in data set [11] (application rate 5 μg/cm^2) was 100% in each case.

Broadly, the logP is the decadic logarithm of the partition coefficient of the neutral form, usually between octanol and water. Read a high logP as a more lipophilic compound.
